Test results from US20190099414A1, “THERAPEUTIC COMPOSITIONS AND METHODS” (UNIVERSITY OF IOWA RESEARCH FOUNDATION, priority 2015, published 2019).

Tests used:
[1] = system: Rho/ROCK pathway; experiment: Real time PCR analysis of Rho/ROCK pathway gene expression; type: cell-based; settings: rabbit joint capsule fibroblasts in collagen gels; 50 μg/mL blebbistatin; 0, 5, 24 and 48 hours; versus blank PLGA particle control
Protocol: Inhibition of Rho/ROCK pathway in RJCFs by blebbistatin nanoparticle was studied using quantitative real-time PCR (qPCR) Two groups of collagen gels were prepared in the same way as described in the collagen gel compaction assay. One group of gels (n=3) was treated with 2.5 mg of blebbistatin nanoparticles dispersed in 50 μL of DMEM so that the final concentration of blebbistatin was 50 μg/mL. The other control group gels (n=3) were also treated in the same way but instead with blank PLGA particles. Measurements were made at four terminal time points of 0, 5, 24 and 48 hours. After each time point the gels were washed twice with DMEM and stored at −80° C. for qPCR analysis.
Total cell RNA was extracted with an RNeasy Mini Kit (Qiagen, Valencia, Calif., USA), by following the manufacturer's protocol. Cells were then homogenized (QIAshredder column, Qiagen), and using an RNeasy column, total RNA was eluted out. The quantity and the quality of the isolated RNA were measured from the absorbance at A260 nm and the ratio of A260/A280 respectively. […] Steady-state mRNA levels were normalized to 18s rRNA and calculated relative to untreated controls by “the relative quantitation using comparative CT” in Multiplex Reactions (PerkinElmer).

[2] = system: rabbit joint capsule fibroblasts; experiment: Collagen gel compaction assay; type: cell-based; settings: collagen gel seeded with rabbit joint capsule fibroblasts; final blebbistatin concentration 50 μg/mL, treated 24 hours, imaged up to 48 hours
Protocol: The effect of blebbistatin on rabbit joint capsule fibroblasts (RJCF) was analyzed using a collagen gel compaction assay. RJCFs between passage 4 and 9 were trypsinized using 0.1% trypsin/EDTA for 5 minutes at 37° C. and then the added trypsin was neutralized using DMEM containing 10% FBS. The cell suspension was centrifuged at 230 g for 5 minutes and resuspended in a desired volume of 10% FBS containing DMEM. The collagen gels loaded with RJCFs were prepared by mixing 10×PBS containing phenol red, 1N NaOH, rat tail collagen-I, and the cell suspension to give a final yield of 1×10^6 cells/mL and 2 mg/mL collagen. 500 μL of the collagen gel mixture was added to each well in a 24 well plate and allowed to gelate for 30 minutes in an incubator. After 30 minutes 500 μL of DMEM containing 10% FBS and 50 μg/mL ascorbic acid was added to each well and incubated for 24 hours. After 24 hours, 2.5 mg of blank and blebbistatin loaded nanoparticles dispersed in 50 μL of DMEM or 50 μL of pure drug dissolved in DMSO (1 mg/mL) or 50 μL DMSO or 50 μL PBS were added to each gel so that the final blebbistatin concentration was 50 μg/mL or a corresponding solvent volume for controls. […] Images were acquired at 0, 0.15, 0.5, 1, 2, 3, 4, 5, 6, 7, 24 and 48 hours, and the amount of compaction was measured with ImageJ.

[3] = system: rabbit joint capsule fibroblasts; experiment: Fluorescent microsphere displacement assay with time-lapse imaging; type: cell-based
Protocol: The effect of blebbistatin on cell ability to compact gels was analyzed by monitoring the displacement of fluorescent microspheres. Cell seeded collagen gels were prepared as described above with the addition of a suspension of fluorescent 4 μm microspheres to achieve a concentration of 5 million microspheres/mL. Approximately, 500 μL of this solution were then carefully added around a 6 mm polydimethysiloxane (PDMS) post in a circular PDMS mold with a 20 mm diameter attached to a 35 mm glass bottom Petri dish. This construct was prepared with the purpose of preventing movement of the gel during imaging, after release. Gels were then incubated at 37° C. for 30 minutes to allow polymerization. Once the gels had polymerized, DMEM supplemented with 10% FBS, 1% Penicillin/Streptomyocin, and 0.1% Amphoterecin B was added. After incubation for 24 hours, the gels were treated with either blebbistatin PLGA particles or with blank PLGA particles for 24 hours. Gels were carefully detached from the surrounding PDMS mold and were rinsed twice using DMEM. […] Microsphere displacements were quantified by use of a custom algorithm using digital image correlation to track the movement of individual particles from frame to frame.

[4] = Raman spectroscopy and differential scanning calorimetry of drug-loaded particles; type: physicochemical; settings: Raman shifts and DSC melting point unchanged after loading
Protocol: Confocal Raman spectroscopy was used to characterize the distribution of blebbistatin in the PLGA nanoparticles. Spectra of pure blebbistatin, pure PLGA, blank nanoparticles, and blebbistatin loaded nanoparticles were produced with the 488 nm line of an Ar+ laser (Coherent, Inova 70, 30 mW). After autoalignment of the instrument, the laser beam was focused on the samples using an inverted optical microscope equipped with a 50× objective lens. Spectra were recorded between 80 cm^−1 to 1300 cm^−1 at high resolution. Spectra were spatially resolved at each pixel by passing the backscattered image of the Ar+ laser through a pinhole of diameter 100 μm onto a cooled CCD camera.
Differential scanning calorimetry was employed to analyze the solid state and thermal properties of the nanoparticles. Approximately 2 mg of either lyophilized blank PLGA nanoparticles or drug-loaded PLGA nanoparticles were weighed and hermetically sealed into aluminum pans. An empty aluminum pan was used as a reference. Sample were heated from 25° C. to 300° C. at a rate of 10° C./min under a stream of nitrogen gas flow to produce thermograms for extracting the transition temperature (Tc) and enthalpy of transition (AH).

Compound: Cc1ccc2c(c1)C(=O)C1(O)CCN(c3ccccc3)C1=N2 (centres unmarked) [blebbistatin, Blebbistatin]
- RhoA, ROCK1 and ROCK2 gene expression (qPCR) [1]: initial increase in RhoA, ROCKI, and ROCK II genes treated with blebbistatin that then decrease to comparable levels as control
- gel area after compaction [2]: 87%±1%
- fluorescent microsphere displacements (cell force generation) ([3]; cell-seeded collagen gels treated 24 hours, compared with control gels): significantly lower
- fibroblast morphology (time-lapse imaging) ([3]; fibroblasts in collagen gels, compared with untreated gels): more spherical fibroblasts
- stability of the drug after loading into the particles [4]: stable and no significant physical/chemical changes occurred
